# Test results from patent US8906930B2, “Quinazoline derivatives” (Merck Patent GmbH, priority 2009, dated 2014).
# Molecular target: T1, Recombinant human HSP90α (Homo sapiens, UniProt P07900)
# T1 construct: host or cells: E. coli
# Assay: HSP90 radioligand filter binding test ([3H]17AAG competition)
# Details: radioligand [3H]17AAG 0.08 μM; HSP90 1.5 μg/assay; 22° C., 30 min; read-out: HSP90 inhibition IC50
# Source text: The binding of geldanamycin or 17-allylamino-17-demethoxygeldanamycin (17AAG) to HSP90 and competitive inhibition thereof can be utilised in order to determine the inhibitory activity of the compounds according to the invention (Carreras et al. 2003, Chiosis et al. 2002).
# In the specific case, a radioligand filter binding test is used. The radioligand used here is tritium-labelled 17-allylaminogeldanamycin, [3H]17AAG. This filter binding test allows a targeted search for inhibitors which interfere with the ATP binding site.
# Recombinant human HSP90α (E. coli expressed, 95% purity);
# [3H]17AAG (17-allylaminogeldanamycin, [allylamino-2,3-^3H. Specific activity: 1.11×10^12 Bq/mmol (Moravek, MT-1717);
# HEPES filter buffer (50 mM HEPES, pH 7.0, 5 mM MgCl2, BSA 0.01%) Multiscreen FB (1 μm) filter plate (Millipore, MAFBNOB 50).
# The 96-well microtitre filter plates are firstly irrigated and coated with 0.1% of polyethylenimine.
# The test is carried out under the following conditions:
# Reaction temperature 22° C.
# Reaction time: 30 min., shaking at 800 rpm
# 50 mM HEPES HCl, pH 7.0, 5 mM MgCl2, 0.01% (w/v) of BSA
# At the end of the reaction, the supernatant in the filter plate is removed by suction with the aid of a vacuum manifold (Multiscreen Separation System, Millipore), and the filter is washed twice.
# The filter plates are then measured in a beta counter (Microbeta, Wallac) with scintillator (Microscint 20, Packard).
# “% of control” is determined from the “counts per minutes” values, and the IC-50 value of a compound is calculated therefrom.
row,Compound,IC50 [nM]
1,"CCOC(=O)C1(c2ccc3nc(N)nc(C(=O)N4Cc5ccccc5C4)c3c2)CC1 [Compound A56, Ethyl 1-[2-amino-4-(isoindoline-2-carbonyl)quinazolin-6-yl]cyclopropanecarboxylate]",10 to 1000
2,"CC(C)(C)NC(=O)C(C)(C)c1ccc2nc(N)nc(C(=O)N3Cc4ccccc4C3)c2c1 [Compound A35, 2-[2-Amino-4-(isoindoline-2-carbonyl)quinazolin-6-yl]-N-tert-butyl-2-methylpropanamide]",10 to 1000
3,"CCNC(=O)C1(c2ccc3nc(N)nc(C(=O)N4Cc5ccccc5C4)c3c2)CCOCC1 [Compound A54, 1-[2-Amino-4-(isoindoline-2-carbonyl)quinazolin-6-yl]-N-ethyltetrahydropyran-4-carboxamide]",1000 to 10000
4,"Nc1nc(C(=O)N2Cc3ccccc3C2)c2cc(CC(=O)N3CCCC3)ccc2n1 [Compound A13, 2-[2-Amino-4-(isoindoline-2-carbonyl)quinazolin-6-yl]-1-pyrrolidin-1-ylethanone]",1000 to 10000
5,"CCN(C)C(=O)C1(c2ccc3nc(N)nc(C(=O)N4Cc5ccccc5C4)c3c2)CC1 [Compound A23, 1-[2-Amino-4-(isoindoline-2-carbonyl)quinazolin-6-yl]-N-ethyl-N-methylcyclopropanecarboxamide]",1000 to 10000
6,"CN1CCN(Cc2ccc3nc(N)nc(C(=O)N4Cc5ccccc5C4)c3c2)CC1 [Compound A76, [2-amino-6-[(4-methylpiperazin-1-yl)methyl]quinazolin-4-yl]-isoindolin-2-ylmethanone]",1000 to 10000
7,"CNC(=O)C1(c2ccc3nc(N)nc(C(=O)N4Cc5ccccc5C4)c3c2)CCC1 [Compound A31, 1-[2-Amino-4-(isoindoline-2-carbonyl)quinazolin-6-yl]-N-methylcyclobutanecarboxamide]",10 to 1000
8,"NC(=O)CNC(=O)C1(c2ccc3nc(N)nc(C(=O)N4Cc5ccccc5C4)c3c2)CCC1 [Compound A33, 1-[2-Amino-4-(isoindoline-2-carbonyl)quinazolin-6-yl]-N-(2-amino-2-oxoethyl)cyclobutanecarboxamide]",10 to 1000
9,CN(Cc1cncn1C)C(=O)Cc1ccc2nc(N)nc(C(=O)N3Cc4ccccc4C3)c2c1 [Compound A19],1000 to 10000
10,"CC(C)(C)NC(=O)C1(c2ccc3nc(N)nc(C(=O)N4Cc5ccccc5C4)c3c2)CC1 [Compound A20, 1-[2-Amino-4-(isoindoline-2-carbonyl)quinazolin-6-yl]-N-tert-butylcyclopropanecarboxamide]",10 to 1000
11,"CCNC(=O)C(c1ccc2nc(N)nc(C(=O)N3Cc4ccccc4C3)c2c1)C(C)C (centres unmarked) [Compound A48, 2-[2-Amino-4-(isoindoline-2-carbonyl)quinazolin-6-yl]-N-ethyl-3-methyl-butanamide]",10 to 1000
12,"CC(C)(C(=O)NCC(N)=O)c1ccc2nc(N)nc(C(=O)N3Cc4ccccc4C3)c2c1 [Compound A39, 2-[2-Amino-4-(isoindoline-2-carbonyl)quinazolin-6-yl]-N-(2-amino-2-oxoethyl)-2-methylpropanamide]",10 to 1000
13,"CC(C)CNC(=O)C(C)(C)c1ccc2nc(N)nc(C(=O)N3Cc4ccccc4C3)c2c1 [Compound A37, 2-[2-Amino-4-(isoindoline-2-carbonyl)quinazolin-6-yl]-N-isobutyl-2-methylpropanamide]",10 to 1000
14,"CC1CCCN1C(=O)Cc1ccc2nc(N)nc(C(=O)N3Cc4ccccc4C3)c2c1 (centres unmarked) [Compound A14, 2-[2-Amino-4-(isoindoline-2-carbonyl)quinazolin-6-yl]-1-(2-methylpyrrolidin-1-yl)ethanone]",1000 to 10000
15,"CN(C)C(=O)C1(c2ccc3nc(N)nc(C(=O)N4Cc5ccccc5C4)c3c2)CC1 [Compound A22, 1-[2-Amino-4-(isoindoline-2-carbonyl)quinazolin-6-yl]-N,N-dimethylcyclopropanecarboxamide]",1000 to 10000
16,"CCN(CCO)C(=O)C1(c2ccc3nc(N)nc(C(=O)N4Cc5ccccc5C4)c3c2)CC1 [Compound A26, 1-[2-Amino-4-(isoindoline-2-carbonyl)quinazolin-6-yl]-N-(2-hydroxyethyl)-N-ethylcyclopropanecarboxamide]",1000 to 10000
17,"CCNC(=O)C(c1ccc2nc(N)nc(C(=O)N3Cc4ccccc4C3)c2c1)C(C)CC (centres unmarked) [Compound A47, 2-[2-Amino-4-(isoindoline-2-carbonyl)quinazolin-6-yl]-N-ethyl-3-methylpentanamide]",10 to 1000
18,"CNC(=O)C(CCC(F)F)c1ccc2nc(N)nc(C(=O)N3Cc4ccccc4C3)c2c1 (centres unmarked) [Compound A41, 2-[2-Amino-4-(isoindoline-2-carbonyl)quinazolin-6-yl]-N-methyl-5,5-difluoropentanamide]",10 to 1000
19,"CCNC(=O)C(CC(C)C)c1ccc2nc(N)nc(C(=O)N3Cc4ccccc4C3)c2c1 (centres unmarked) [Compound A46, 2-[2-Amino-4-(isoindoline-2-carbonyl)quinazolin-6-yl]-N-ethyl-4-methylpentanamide]",10 to 1000
20,"CC(C)(C(=O)NCCC#N)c1ccc2nc(N)nc(C(=O)N3Cc4ccccc4C3)c2c1 [Compound A40, 2-[2-Amino-4-(isoindoline-2-carbonyl)quinazolin-6-yl]-N-(2-cyanoethyl)-2-methylpropanamide]",1000 to 10000
21,"CN(CCO)C(=O)C1(c2ccc3nc(N)nc(C(=O)N4Cc5ccccc5C4)c3c2)CC1 [Compound A25, 1-[2-Amino-4-(isoindoline-2-carbonyl)quinazolin-6-yl]-N-(2-hydroxyethyl)-N-methylcyclopropanecarboxamide]",1000 to 10000

# The next lines start with the values.
row,IC50 [nM],Compound
1,1000 to 10000,"CCN(CCO)C(=O)Cc1ccc2nc(N)nc(C(=O)N3Cc4ccccc4C3)c2c1 [Compound A12, 2-[2-Amino-4-(isoindoline-2-carbonyl)quinazolin-6-yl]-N-(2-hydroxyethyl)-N-ethylacetamide]"
2,1000 to 10000,"CCNC(=O)C(CCC(F)F)c1ccc2nc(N)nc(C(=O)N3Cc4ccccc4C3)c2c1 (centres unmarked) [Compound A42, 2-[2-Amino-4-(isoindoline-2-carbonyl)quinazolin-6-yl]-N-ethyl-5,5-difluoropentanamide]"
3,1000 to 10000,"Nc1nc(C(=O)N2Cc3ccccc3C2)c2cc(CC(=O)O)ccc2n1 [Compound A2, 2-[2-Amino-4-(isoindoline-2-carbonyl)quinazolin-6-yl]acetic acid]"
4,10 to 1000,"Nc1nc(C(=O)N2Cc3ccccc3C2)c2cc(C3(C(=O)O)CC3)ccc2n1 [Compound A57, 1-[2-Amino-4-(isoindoline-2-carbonyl)quinazolin-6-yl]cyclopropanecarboxylic acid]"
5,10 to 1000,NC(=O)C(CCC(F)F)c1ccc2nc(N)nc(C(=O)N3Cc4ccccc4C3)c2c1 (centres unmarked) [Compound A4]
6,10 to 1000,"NC(=O)C1(c2ccc3nc(N)nc(C(=O)N4Cc5ccccc5C4)c3c2)CCC1 [Compound A5, 1-[2-amino-4-(isoindoline-2-carbonyl)quinazolin-6-yl]cyclobutane-carboxamide]"
7,1000 to 10000,"CC(C)(C)NC(=O)Cc1ccc2nc(N)nc(C(=O)N3Cc4ccccc4C3)c2c1 [Compound A7, 2-[2-amino-4-(isoindoline-2-carbonyl)quinazolin-6-yl]-N-tert-butylacetamide]"
8,10 to 1000,"CCCNC(=O)C(C)(C)c1ccc2nc(N)nc(C(=O)N3Cc4ccccc4C3)c2c1 [Compound A38, 2-[2-Amino-4-(isoindoline-2-carbonyl)quinazolin-6-yl]-N-propyl-2-methylpropanamide]"
9,10 to 1000,"CCNC(=O)C1(c2ccc3nc(N)nc(C(=O)N4Cc5ccccc5C4)c3c2)CCCC1 [Compound A53, 1-[2-Amino-4-(isoindoline-2-carbonyl)quinazolin-6-yl]-N-ethylcyclopentanecarboxamide]"
10,1000 to 10000,"CCN(CC)C(=O)Cc1ccc2nc(N)nc(C(=O)N3Cc4ccccc4C3)c2c1 [Compound A8, 2-[2-amino-4-(isoindoline-2-carbonyl)quinazolin-6-yl]-N,N-diethylacetamide]"
11,1000 to 10000,"CCN(CCN(C)C)C(=O)C1(c2ccc3nc(N)nc(C(=O)N4Cc5ccccc5C4)c3c2)CC1 [Compound A28, 1-[2-Amino-4-(isoindoline-2-carbonyl)quinazolin-6-yl]-N-(2-dimethylaminoethyl)-N-ethylcyclopropanecarboxamide]"
12,1000 to 10000,"CC1CCC(C)N1C(=O)Cc1ccc2nc(N)nc(C(=O)N3Cc4ccccc4C3)c2c1 (centres unmarked) [Compound A15, 2-[2-Amino-4-(isoindoline-2-carbonyl)quinazolin-6-yl]-1-(2,5-dimethylpyrrolidin-1-yl)ethanone]"
13,10 to 1000,"CCNC(=O)C(CCC(C)C)c1ccc2nc(N)nc(C(=O)N3Cc4ccccc4C3)c2c1 (centres unmarked) [Compound A45, 2-[2-Amino-4-(isoindoline-2-carbonyl)quinazolin-6-yl]-N-ethyl-5-methyl-hexanamide]"
14,1000 to 10000,"CCN(CC)C(=O)C1(c2ccc3nc(N)nc(C(=O)N4Cc5ccccc5C4)c3c2)CC1 [Compound A24, 1-[2-Amino-4-(isoindoline-2-carbonyl)quinazolin-6-yl]-N,N-diethylcyclopropanecarboxamide]"
